{
  "source": "patent US11382892B2",
  "about": "“Method for administration” (Hoffmann-La Roche Inc., priority 2012, dated 2022)",
  "key": {"[1]": {"test_system": "human osteosarcoma cancer xenograft model SJSA1", "assay": "Survival / increase in life span in SJSA1 xenograft", "format": "in vivo, mice", "settings": "for 50% Treatment Days (median survival): vehicle 26 days", "experimental": "For survival assessment, the percent of increased life space (ILS) was calculated as: 100×[(median survival day of treated group−median survival day of control group)/median survival day of control group]. Median survival was determined utilizing Kaplan Meier survival analysis. Survival in treated groups was statistically compared with the vehicle group and survival comparisons were done between groups using the log-rank test (Graph Pad Prism, La Jolla, Calif., USA). Differences between groups were considered significant when the probability value (p) was ≤0:05.\nAll dose levels are reported as the actual dosage of Compound A rather than including drug plus polymer.\n(§1) Female athymic Crl:NU-Foxn1nu mice (10/group), obtained from Charles River Laboratories (Wilmington, Del.) were utilized when they were approximately 10-12 weeks of age and weighed 23-25 g. The health of the mice was assessed daily by gross observation and analyses of blood samples taken from sentinel animals housed on shared shelf racks. All animals were allowed to acclimate and recover from any shipping-related stress for a minimum of 72 hours prior to experimental use. Autoclaved water and irradiated food (5058-ms Pico Lab mouse chow, Purina Mills, Richmond, Ind.) were provided ad libitum, and the animals were maintained on a 12 hour light and dark cycle. Cages, bedding and water bottles were autoclaved before use and changed weekly. All animal experiments were conducted in accordance with the Guide for the Care and Use of Laboratory Animals, local regulations, and protocols approved by the Roche Animal Care and Use Committee in an AAALAC accredited facility.\nSJSA cells (ATCC) were maintained in RPMI 1640+10% (v/v) heat-inactivated FBS+i % (v/v) […] L-glutamine. Each mouse received 5×10^6 cells in a 1:1 mixture of phosphate buffered saline and Matrigel in a total volume of 0.2 ml. Cells were implanted subcutaneously in the right flank using a 1 cc syringe and a 26 gauge needle.\nTreatment duration was 2-4 weeks. Dates of tumor implant, treatment initiation (study start date), and termination of treatment (study end date) can be found in Table 6 below. The starting tumor volume for this study was about 220 mm^3. Tumor volumes and animal body weights were measured three times per week and animals were monitored for clinical signs daily."}, "TUNEL + cells": {"test_system": "TUNEL + cells", "assay": "TUNEL assay in patient tumor biopsy cells", "format": "in vivo, human", "settings": "for TUNEL + cells (mm2) Average FCBL: cohort average; for TUNEL + cells (mm2) Median FCBL: cohort median; for TUNEL + cells (mm2) FCBL: individual patients, tumor biopsy vs baseline", "experimental": "The 10 mg tablets contain hypromellose acetate succinate, mannitol, microcrystalline cellulose, croscarmellose sodium, colloidal silicon dioxide, and magnesium stearate. The film-coat consists of hypromellose, titanium dioxide, talc, triacetin, iron oxide yellow, and iron oxide red. The 50 mg, 200 mg, and 400 mg film coated tablets contain the excipients hypromellose acetate succinate, croscarmellose sodium, colloidal silicon dioxide, and magnesium stearate. The film-coat consists of polyvinyl alcohol, titanium dioxide, polyethylene glycol, talc, iron oxide yellow, iron oxide red, and iron oxide black.\nTumor biopsies were collected at baseline and cycle 1, day 5±2.\nTumor biopsy cells were analyzed via TUNEL (terminal deoxynucleotidyl transferase dUTP nick end labeling) to determine cell apoptosis. TUNEL is a common method for detecting DNA fragmentation that results from apoptotic signaling cascades. The assay relies on the presence of nicks in the DNA which can be identified by terminal deoxynucleotidyl transferase or TdT, an enzyme that will catalyze the addition of dUTPs that are secondarily labeled with a marker."}, "[2]": {"assay": "Toxicity summary (body weight, mortality) in MOLM-13 xenograft study", "format": "in vivo", "settings": "MOLM-13 study", "excerpt": "In the examples below, weight loss was graphically represented as percent change in mean group body weight, using the formula: ((W−W0)/W0)×100, where ‘W’ represents mean body weight of the treated group at a particular day, and ‘W0’ represents mean body weight of the same treated group at initiation of treatment.\nas §1, with “SCID:beige” for “athymic Crl:NU-Foxn1nu”, “8-10” for “10-12”, “21-23” for “23-25”\nTreatment duration was initiated on day 3 and was for 2 weeks. Animal body weights were measured three times per week and animals were monitored for clinical signs daily."}, "[3]": {"settings": "100 mg/kg QD po 2 on/12 off x 2"}, "[4]": {"settings": "200 mg/kg (two 100 mg/kg doses 8 hr apart) 1x/wk po"}},
  "note": "Several values for one entry are separate records, joined by “and”; a condition that tells them apart may be missing. Equal entries are not always repeated.",
  "data": [
    {"smiles": "COc1cc(C(=O)O)ccc1NC(=O)[C@@H]1N[C@@H](CC(C)(C)C)[C@](C#N)(c2ccc(Cl)cc2F)[C@H]1c1cccc(Cl)c1F", "note": "[Compound A, 4-{[(2R,3S,4R,5S)-4-(4-Chloro-2-fluoro-phenyl)-3-(3-chloro-2-fluoro-phenyl)-4-cyano-5-(2,2-dimethyl-propyl)-pyrrolidine-2-carbonyl]-amino}-3-methoxy-benzoic acid]", "values": [
      {"measurement": "% Increased Life Span (% ILS)", "setting": "[1]; 7.5 mg/kg QD po", "value": 23, "unit": "%"},
      {"measurement": "50% Treatment Days (median survival)", "setting": "[1]; 7.5 mg/kg QD po", "value": 32, "unit": "days"},
      {"measurement": "% Increased Life Span (% ILS)", "setting": "[1]; 15 mg/kg QD po", "value": 62, "unit": "%"},
      {"measurement": "50% Treatment Days (median survival)", "setting": "[1]; 15 mg/kg QD po", "value": 42, "unit": "days"},
      {"measurement": "% Increased Life Span (% ILS)", "setting": "[1]; 20 mg/kg QD po 20 on/8 off", "value": 77, "unit": "%"},
      {"measurement": "50% Treatment Days (median survival)", "setting": "[1]; 20 mg/kg QD po 20 on/8 off", "value": 46, "unit": "days"},
      {"measurement": "% Increased Life Span (% ILS)", "setting": "[1]; 30 mg/kg QD po", "value": 127, "unit": "%"},
      {"measurement": "50% Treatment Days (median survival)", "setting": "[1]; 30 mg/kg QD po", "value": 59, "unit": "days"},
      {"measurement": "% Increased Life Span (% ILS)", "setting": "[1]; 50 mg/kg 1x/wk po", "value": 23, "unit": "%"},
      {"measurement": "50% Treatment Days (median survival)", "setting": "[1]; 50 mg/kg 1x/wk po", "value": 32, "unit": "days"},
      {"measurement": "% Increased Life Span (% ILS)", "setting": "[1]; 50 mg/kg QD po 2 on/5 off x 4", "value": 119, "unit": "%"},
      {"measurement": "50% Treatment Days (median survival)", "setting": "[1]; 50 mg/kg QD po 2 on/5 off x 4", "value": 57, "unit": "days"},
      {"measurement": "% Increased Life Span (% ILS)", "setting": "[1]; 50 mg/kg QD po 4 on/10 off x 2", "value": 112, "unit": "%"},
      {"measurement": "50% Treatment Days (median survival)", "setting": "[1]; 50 mg/kg QD po 4 on/10 off x 2", "value": 55, "unit": "days"},
      {"measurement": "% Increased Life Span (% ILS)", "setting": "[1]; 80 mg/kg QD po 5 on/23 off", "value": 127, "unit": "%"},
      {"measurement": "50% Treatment Days (median survival)", "setting": "[1]; 80 mg/kg QD po 5 on/23 off", "value": 59, "unit": "days"},
      {"measurement": "% Increased Life Span (% ILS)", "setting": "[1]; 100 mg/kg 1x/wk po", "value": 77, "unit": "%"},
      {"measurement": "50% Treatment Days (median survival)", "setting": "[1]; 100 mg/kg 1x/wk po", "value": 46, "unit": "days"},
      {"measurement": "% Increased Life Span (% ILS)", "setting": "[1]; 100 mg/kg QD po 2 on/5 off x 4", "value": 188, "unit": "%"},
      {"measurement": "50% Treatment Days (median survival)", "setting": "[1]; 100 mg/kg QD po 2 on/5 off x 4", "value": 75, "unit": "days"},
      {"measurement": "% Increased Life Span (% ILS)", "setting": "[1]; [3]", "value": 119, "unit": "%"},
      {"measurement": "50% Treatment Days (median survival)", "setting": "[1]; [3]", "value": 57, "unit": "days"},
      {"measurement": "% Increased Life Span (% ILS)", "setting": "[1]; [4]", "value": 162, "unit": "%"},
      {"measurement": "50% Treatment Days (median survival)", "setting": "[1]; [4]", "value": 68, "unit": "days"},
      {"measurement": "TUNEL + cells (mm2) Average FCBL", "setting": "TUNEL + cells; BM-A1 800 mg bid Qwk × 3", "value": 1.2},
      {"measurement": "TUNEL + cells (mm2) Median FCBL", "setting": "TUNEL + cells; BM-A1 800 mg bid Qwk × 3", "value": 0.8},
      {"measurement": "TUNEL + cells (mm2) FCBL", "setting": "TUNEL + cells; BM-A1 800 mg bid Qwk × 3", "value": "0.8 (2×) and 3.2 and 0.1"},
      {"measurement": "TUNEL + cells (mm2) Average FCBL", "setting": "TUNEL + cells; BM-A2 1200 mg bid Qwk × 3", "value": 2.7},
      {"measurement": "TUNEL + cells (mm2) Median FCBL", "setting": "TUNEL + cells; BM-A2 1200 mg bid Qwk × 3", "value": 2.3},
      {"measurement": "TUNEL + cells (mm2) FCBL", "setting": "TUNEL + cells; BM-A2 1200 mg bid Qwk × 3", "value": "5.3 and 2.3 and 0.9 and 1.6 and 3.3"},
      {"measurement": "TUNEL + cells (mm2) Average FCBL", "setting": "TUNEL + cells; BM-B1 400 mg bid × 5 d", "value": 1.7},
      {"measurement": "TUNEL + cells (mm2) Median FCBL", "setting": "TUNEL + cells; BM-B1 400 mg bid × 5 d", "value": 1.8},
      {"measurement": "TUNEL + cells (mm2) FCBL", "setting": "TUNEL + cells; BM-B1 400 mg bid × 5 d", "value": "0.9 (2×) and 1.8 (2×) and 3.2"},
      {"measurement": "TUNEL + cells (mm2) Average FCBL", "setting": "TUNEL + cells; BM-B2 500 mg bid × 3 d", "value": 1.7},
      {"measurement": "TUNEL + cells (mm2) Median FCBL", "setting": "TUNEL + cells; BM-B2 500 mg bid × 3 d", "value": 0.9},
      {"measurement": "TUNEL + cells (mm2) FCBL", "setting": "TUNEL + cells; BM-B2 500 mg bid × 3 d", "value": "0.5 and 0.4 and 0.6 and 5.3 and 1.2 and 1.9"},
      {"measurement": "TUNEL + cells (mm2) Average FCBL", "setting": "TUNEL + cells; BM-B3 500 mg qd × 5 d", "value": 1.2},
      {"measurement": "TUNEL + cells (mm2) Median FCBL", "setting": "TUNEL + cells; BM-B3 500 mg qd × 5 d", "value": 1.2},
      {"measurement": "TUNEL + cells (mm2) FCBL", "setting": "TUNEL + cells; BM-B3 500 mg qd × 5 d", "value": "0.6 and 1.7 and 1.2"},
      {"measurement": "apoptosis by TUNEL", "setting": "TUNEL + cells; doses and schedules of Table 10", "value": "increase in apoptosis"},
      {"measurement": "treatment related toxicity", "setting": "[2]; 80 mg/kg qd × 5 po", "value": "absence of treatment related toxicity"},
      {"measurement": "# of animals ≥20% BWL", "setting": "[2]; 80 mg/kg qdx5 po", "value": 0},
      {"measurement": "% Change in Body Weight at end of Study Day 17", "setting": "[2]; 80 mg/kg qdx5 po", "value": "−3.2", "unit": "%"},
      {"measurement": "Maximum % Weight gain", "setting": "[2]; 80 mg/kg qdx5 po", "value": "−3.2", "unit": "%"},
      {"measurement": "Maximum % Weight loss", "setting": "[2]; 80 mg/kg qdx5 po", "value": "−5.5", "unit": "%"},
      {"measurement": "Mortality (reason)", "setting": "[2]; 80 mg/kg qdx5 po, reason: dosing injury", "value": "1 (dosing"}
    ]}
  ]
}
